Experimental data published in paper PMC11203575, “The First In Vivo Study Shows That Gyrophoric Acid Changes Behavior of Healthy Laboratory Rats” (International Journal of Molecular Sciences, 2024).

Molecular target: T1, human serum albumin (HSA) (Homo sapiens, UniProt P02768)
T1 construct: gene ALB; Albumin from human serum (A1887, Sigma Aldrich)
Test: intrinsic fluorescence quenching titration (Stern-Volmer), synchronous and 3D fluorescence
Format: binding
Settings: read-out: KB × 10^6 (M^-1) (converted)

T1 sequence (P02768 25-609): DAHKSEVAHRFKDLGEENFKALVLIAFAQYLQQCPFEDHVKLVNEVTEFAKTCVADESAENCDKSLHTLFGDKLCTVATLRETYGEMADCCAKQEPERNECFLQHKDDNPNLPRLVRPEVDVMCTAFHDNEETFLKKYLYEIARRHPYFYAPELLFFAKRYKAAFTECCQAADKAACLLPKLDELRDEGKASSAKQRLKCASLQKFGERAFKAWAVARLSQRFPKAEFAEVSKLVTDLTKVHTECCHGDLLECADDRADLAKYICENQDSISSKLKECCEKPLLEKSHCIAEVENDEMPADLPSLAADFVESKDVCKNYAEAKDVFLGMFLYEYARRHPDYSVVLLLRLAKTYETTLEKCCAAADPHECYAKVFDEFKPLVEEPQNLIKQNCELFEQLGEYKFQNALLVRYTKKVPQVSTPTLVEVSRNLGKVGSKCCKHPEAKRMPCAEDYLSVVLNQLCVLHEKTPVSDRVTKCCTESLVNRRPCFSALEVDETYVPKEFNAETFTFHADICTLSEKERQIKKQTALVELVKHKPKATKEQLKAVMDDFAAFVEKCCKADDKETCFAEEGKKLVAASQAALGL

Kd: 559 nM
Compound: Cc1cc(OC(=O)c2c(C)cc(OC(=O)c3c(C)cc(O)cc3O)cc2O)cc(O)c1C(=O)O [GA, Gyrophoric acid]
